Assay results taken from ChEMBL document CHEMBL1795340, “A discovery of novel Mycobacterium tuberculosis pantothenate synthetase inhibitors based on the molecular mechanism of actinomycin D inhibition” (Bioorg Med Chem Lett, 2011).
Values after ≈ are worked out from the molar mass of the structure shown.

Key:
[1] = tested on: Mycobacterium tuberculosis; assay: Antimycobacterial activity against rifampin and isoniazid-resistant Mycobacterium tuberculosis; assay type: functional
[2] = tested on: Mycobacterium tuberculosis; assay: Antimycobacterial activity against drug-resistant Mycobacterium tuberculosis clinical isolate; assay type: functional

## COC(=O)c1cc2c(OCc3ccccc3)cc(N)cc2[nH]1
[1]
  MIC: 54 µM (≈ 16 µg/mL)
[2]
  MIC: 54 µM (≈ 16 µg/mL)
